Laboratory results taken from patent US9161989B2, “Cupredoxin derived transport agents and methods of use thereof” (priority 2004, dated 2015).
Read-outs that look alike come from different tables or passages of the source.

Test system: UISO-MeI-2 cells
Type: cell-based

Compound | Effect on uptake of azurin in UISO-MeI-2 cells | Effect on uptake of azurin in UISO-MeI-2 cells (20 pM)
C[C@H]1CCC/C=C/[C@@H]2C[C@H](O)C[C@H]2[C@H](O)/C=C/C(=O)O1 [Brefeldin A] | no significant effect | 
C=C1[C@@H](C)[C@H]2[C@H](Cc3ccccc3)NC(=O)[C@]23[C@H](OC(C)=O)/C=C/[C@@](C)(O)C(=O)[C@@H](C)C/C=C/[C@H]3[C@@H]1O [cytochalasin D] | significantly reduced | 
carbonyl cyanide m-chlorophrnylhydrazone [CCCP] |  | significantly reduced
